Columns and labels:
[1] = molecular target: T1, Organic anion transporter 3 (Rattus norvegicus, UniProt Q9R1U7); assay: (§1) TP_TRANSPORTER: Northern blot in vivo, kidney of Wistar rat; assay type: functional, organism-based
T1 sequence (Q9R1U7 whole entry): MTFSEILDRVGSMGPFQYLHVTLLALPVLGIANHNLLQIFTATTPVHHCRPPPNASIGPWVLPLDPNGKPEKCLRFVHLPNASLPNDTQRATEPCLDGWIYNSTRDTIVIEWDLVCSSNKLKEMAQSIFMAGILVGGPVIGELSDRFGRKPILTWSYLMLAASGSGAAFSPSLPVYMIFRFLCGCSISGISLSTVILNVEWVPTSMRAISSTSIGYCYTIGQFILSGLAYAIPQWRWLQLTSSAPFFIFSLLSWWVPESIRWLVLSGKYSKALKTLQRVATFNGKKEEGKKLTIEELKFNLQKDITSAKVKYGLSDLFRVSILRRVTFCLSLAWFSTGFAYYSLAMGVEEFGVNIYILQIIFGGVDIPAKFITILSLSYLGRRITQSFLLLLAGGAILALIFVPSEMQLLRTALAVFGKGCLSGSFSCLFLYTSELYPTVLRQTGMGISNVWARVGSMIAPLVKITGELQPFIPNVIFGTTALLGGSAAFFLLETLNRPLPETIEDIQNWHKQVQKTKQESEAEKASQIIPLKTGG

[2] = molecular target: T2, Solute carrier family 22 member 7 (Rattus norvegicus, UniProt Q5RLM2); assay: as §1; assay type: functional, organism-based
T2 sequence (Q5RLM2 whole entry): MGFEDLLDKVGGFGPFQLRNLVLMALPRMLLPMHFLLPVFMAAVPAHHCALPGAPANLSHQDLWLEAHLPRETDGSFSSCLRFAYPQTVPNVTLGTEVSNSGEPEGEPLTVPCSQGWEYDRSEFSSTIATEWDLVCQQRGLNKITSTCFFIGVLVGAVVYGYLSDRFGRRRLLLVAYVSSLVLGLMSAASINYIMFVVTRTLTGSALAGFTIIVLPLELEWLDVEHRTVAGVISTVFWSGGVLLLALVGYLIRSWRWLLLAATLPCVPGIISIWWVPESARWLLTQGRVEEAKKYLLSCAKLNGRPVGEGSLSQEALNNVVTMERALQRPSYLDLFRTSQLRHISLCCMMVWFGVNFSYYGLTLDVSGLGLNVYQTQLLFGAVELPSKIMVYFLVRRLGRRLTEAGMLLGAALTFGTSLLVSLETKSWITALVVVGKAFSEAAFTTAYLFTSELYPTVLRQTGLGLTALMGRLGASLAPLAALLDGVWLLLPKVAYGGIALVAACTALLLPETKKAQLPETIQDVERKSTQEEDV

C[C@]12CC[C@H]3[C@@H](CCC4=CC(=O)CC[C@@]43C)[C@@H]1CC[C@@H]2O [TESTOSTERONE]
Activity [1]: inducer [+] | Activity [2]: inducer [Decrease]
